Laboratory results from US5716986A, “Oxaindene derivatives and process for the preparation thereof” (priority 1995, dated 1998).

What was measured:
[1] = molecular target: T1, 5-lipoxygenase (5-LO) enzyme (Homo sapiens, UniProt P09917); experiment: Determination of 5-LO enzyme activity of human leukocytes by measuring their leukotriene B4 production (whole cell); assay type: cell-based; conditions: human PMN leukocytes, LTB4 release, ionophore A-23187 0.001 mM, pH 7.2, 37° C., 15 minutes, RIA; read-out: 5-lipoxygenase enzyme inhibition, in whole cell, IC50
T1 construct: the enzyme in the cytosol was partially purified by ammonium sulphate fractionation; endogenous in cells; host or cells: human polymorphonuclear leukocytes (sonicated, cytosol, ammonium sulphate fraction)
T1 sequence (P09917 1-674): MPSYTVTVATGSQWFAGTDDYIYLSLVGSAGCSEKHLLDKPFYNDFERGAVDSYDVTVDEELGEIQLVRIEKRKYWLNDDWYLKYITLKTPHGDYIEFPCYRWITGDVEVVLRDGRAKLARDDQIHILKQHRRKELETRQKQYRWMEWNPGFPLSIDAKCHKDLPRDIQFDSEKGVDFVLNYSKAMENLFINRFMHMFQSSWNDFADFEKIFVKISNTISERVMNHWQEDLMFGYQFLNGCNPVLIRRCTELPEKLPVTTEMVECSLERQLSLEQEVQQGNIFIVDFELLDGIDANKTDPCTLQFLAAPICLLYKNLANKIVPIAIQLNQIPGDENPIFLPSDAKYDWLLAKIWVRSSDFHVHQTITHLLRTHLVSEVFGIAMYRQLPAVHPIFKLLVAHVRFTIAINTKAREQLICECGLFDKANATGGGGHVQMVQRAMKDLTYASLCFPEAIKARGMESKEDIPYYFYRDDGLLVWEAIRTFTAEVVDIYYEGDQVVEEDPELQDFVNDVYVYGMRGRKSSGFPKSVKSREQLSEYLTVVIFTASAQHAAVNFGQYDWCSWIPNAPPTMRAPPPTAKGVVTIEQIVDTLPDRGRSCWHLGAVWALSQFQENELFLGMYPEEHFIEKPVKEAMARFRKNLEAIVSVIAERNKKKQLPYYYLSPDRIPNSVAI
From the text: 2. Determination of 5-LO enzyme activity of human leukocytes by measuring their leukotriene B4 production
The method of Mia et al. was applied [H. Mita, Y. Yui and T. Shida: Effect of AA-861, a 5-lipoxygenase inhibitor on leukotriene synthesis in human polymorphonuclear leukocytes and on cyclooxygenase and 12-lipoxygenase activities in human platelets, Allergy 41, 493-498, (1986)]. The principle of the experiment is as follows: the calcium ionophore A-23187 induces the synthesis and the release of LTB4 by human polymorphonuclear leukocytes. The amount of LTB4 released into the incubation medium reflects the 5-LO enzyme activity of the intact cells. The incubation medium was Hank's balanced medium (HBBS) supplemented with 17 mM of Tris-HCl (pH 7.2), 1.22 mM of CaCl2, 1 mM of MgCl2, 0.001 mM of A-23187 and 10^4 PMN leukocyte per ml reaction mixture. The reaction was started with the addition of ionophore then incubated at 37° C. for 15 minutes. The reaction was stopped by adding 5 mM of EDTA and by chilling the samples in an ice bath. The samples were centrifuged and the amount of LTB4 in the supernatant was determined by radioiimmunoassay (RIA).

[2] = molecular target: T1, 5-lipoxygenase (5-LO) enzyme; experiment: Measurement of 5-LO enzyme activity in cell free system prepared from human leukocytes (direct); assay type: biochemical; conditions: human polymorphonuclear leukocytes, 0.02 mM arachidonic acid, pH 7.5, 37° C., 5 minutes, read-out: 5-lipoxygenase enzyme inhibition, direct, IC50
Experimental: 1. Measurement of 5-LO enzyme activity in cell free system prepared from human leukocytes
The enzyme activity was measured according to the modified method of Ochi et al. [K. Ochi, T. Yoshimoto, S. Yamamoto, K. Taniguchi, T. Miyamoto: Arachidonate 5-lipoxygenase of guinea pig peritoneal polymorphonuclear leukocytes, J. Biol. Chem. 258, 5754-5758 (1983)]. The principle of the method is as follows: in in vitro systems, during the reaction catalysed by 5-LO 5-hydroxyperoxy-6,8,11,14-eicosatetraenoic acid (5-HPETE) is formed from arachidonic acid, then it is transformed to 5-hydroxy-6,8,11,14-eicosatetraenoic acid (5-HETE). Both 5-HPETE and 5-HETE have absorption maximum at 236 nm, therefore it is possible to determine the activity of 5-LO enzyme by measuring the change of absorption at 236 nm. 5-LO was prepared from human polymorphonuclear leukocytes by a simple purification procedure. The cells were washed and lysed by a sonic disintegrator. The lysate was centrifuged and the enzyme in the cytosol was partially purified by ammonium sulphate fractionation (the enzyme precipitates at 50% saturation). The reaction mixture (50 mM tris-HCl pH=7.5, 2mM CaCl2, 0.1 mM ATP, 0.02 mM arachidonic acid) was incubated at 37° C. for 5 minutes. The reaction was started with the addition of arachidonic acid and stopped by the addition of 10 mM of citric acid. The thus-obtained 5-HPETE and 5-HETE were extracted with a 6:4 mixture of diethyl ether and hexane and the absorption of the organic phase was measured by spectrophotometry at […].

[3] = tested on: Ear oedema induced by arachidonic acid in mice; experiment: Ear oedema induced by arachidonic acid in mice; assay type: in vivo, NMRI strain); conditions: female NMRI mice, topical, 30 minutes before arachidonic acid (3 mg), measured 60 minutes later
Experimental: 3. Ear oedema induced by arachidonic acid in mice
Inflammation of ear was induced by arachidonic acid using a modified version of the procedure described by Young et al. [Young, J. M., Spires, D. A., Bedord, C. J., Wagner, B., Ballaron, S. J., De Young, L. M.: The mouse ear inflammatory response to topical arachidonic acid, J. Invest. Dermatol. 82, 67-371 (1984)]. The experiments were carried out in female mice from the NMRI strain weighing 25 to 30 g (8 animals/groups). Drugs were applied topically in acetone or ethanol by an automatic pipette in 10 μl volumes to both the inner and outer surfaces of the ear. 30 minutes after drug or vehicle administration both sides of the left ear were brushed with 3 mg of arachidonic acid in 20 μl of acetone and both sides of the right ear were treated with 20 μl of acetone only. 60 minutes later the animals were killed by aether, then a disk of 7 mm diameter was cut off both ears. The mass of each disk was measured by an analytical scale and the mean of the difference of the left and right ears was calculated for every group. ID50 values were determined by plotting the log-dose versus percentage response as compared to vehicle-treated animals.

PAF lethality in mice = experiment: PAF induced anaphylactic shock test in mice (PAF lethality); assay type: in vivo; conditions: Mus musculus, ip, 1 h; male NMRI mice, intraperitoneal, 30 minutes before intravenous PAF 100 μg/kg, mortality at one hour; read-out: PAF lethality in mice ID50
Experimental: 4. PAF induced anaphylactic shock test in mice
A modification of the method of Young et al. [Young, J. M., Maloney, P. J., Jubb, S. N. and Clark, J. S.: Pharmacological investigation of the mechanism of platelet-activating factor mortality in the mouse, Prostaglandins 30, 545-551 (1985)] was used. The experiments were carried out in male NMRI mice weighing 20-25 g (10 animals/group). The test compounds were suspended in 0.4% methyl cellulose and administered intraperitoneally in a volume of 10 ml/kg. The mice of the control group received only vehicle. 30 minutes later the animals received intravenous PAF in a dose of 100 μg/kg (5 ml/kg). Mortality was determined one hour after PAF administration. Every experiment was repeated three times (n=30). The ratio of mortality of the treated animals was compared to that of the control mice. ID50 values were calculated by linear regression analysis.

Compound	IC50 [1] [nM]	IC50 [2] [nM]	Arachidonic acid ear oedeme in mice ID50 [3] [mg/ear]	ED50 (PAF lethality in mice) [mg/kg]
Cc1c(O)cc2c(c1C)O[C@H]1C=CC[C@@H]21 (relative stereo) [Example 3, cis-6,7-Dimethyl-3a,8a-dihydro-3H-8-oxacyclopenta[a]indene-5-ol]	500	5500	–	–
COc1cc2c(cc1O)[C@@H]1CC=C[C@@H]1O2 (relative stereo) [Example 5, cis-6-Methoxy-3a,8a-dihydro-3H-8-oxacyclopenta[a]indene-5-ol]	300	2700	0.18	–
COc1cc2c(cc1O)[C@@H]1CCC[C@@H]1O2 (relative stereo) [Example 6, cis-6-Methoxy-2,3,3a,8a-tetrahydro-1H-8-oxacyclopenta[a]indene-5-ol]	–	1200	0.23	100
Cc1c(C)c2c(c(C)c1O)[C@@H]1CCC[C@@H]1O2 (relative stereo) [Example 2, cis-4,6,7-Trimethyl-2,3,3 a,8a-tetrahydro-1H-8-oxacyclopenta[a]indene-5-ol]	50	390	0.18	16.2
CC(Cc1ccc(O)c(O)c1)C(C)Cc1ccc(O)c(O)c1 (stereo not drawn) [NDGA, 1,4-bis(3,4-dihydroxyphenyl)-2,3-dimethylbutane, reference compound]	–	–	> 1.0	29.2
Cc1c(C)c2c(c(C)c1O)[C@@H]1CC=C[C@@H]1O2 (relative stereo) [Example 1, cis-4,6,7-Trimethyl-3a,8a-dihydro-3H-8-oxacyclopenta[a]indene-5-ol]	680	74	–	51.7
CCOc1cc2c(cc1O)[C@@H]1CC=C[C@@H]1O2 (relative stereo) [Example 7, cis-6-Ethoxy-3a,8a-dihydro-3H-8-oxacyclopenta[a]indene-5-ol]	300	1700	0.11	27.3
Cc1c(O)cc2c(c1C)O[C@H]1CCC[C@@H]21 (relative stereo) [Example 4, cis-6,7-Dimethyl-2,3,3a,8a-tetrahydro-1H-8-oxacyclopenta[a]indene-5-ol]	300	1200	–	65.2
Cc1c(C)c2c(c(C)c1O)[C@H]1CCC=C[C@H]1O2 (relative stereo) [Example 23, cis-1,3,4-Trimethyl-5a,8,9,9a-tetrahydrodibenzofurane-2-ol]	140	540	–	23.2
Cc1c(C)c2c(c(C)c1O)C1CCCCCC1O2 (stereo not drawn) [Example 10, 1,2,4-Trimethyl-4b,6,7,8,9,9a-hexahydro-5H-10-oxabenzo[a]azulene-3-ol]	70	99	0.16	22.5
O=C1CCN(c2ccccc2)N1 [Phenidone, 1-phenyl-3-pyrazolidinone, reference compound]	–	–	0.18	14.2
CCOc1cc2c(cc1O)[C@@H]1CCC[C@@H]1O2 (relative stereo) [Example 8, cis-6-Ethoxy-2,3,3a,8a-tetrahydro-1H-8-oxa-cyclopenta[a]indene-5-ol]	–	490	–	45
CC1=C(C)C(=O)C(CCCCC#CCCCC#CCO)=C(C)C1=O [AA-861, 2-(12-hydroxy-5,10-dodecadiinyl)-3,5,6-trimethyl-p-benzoquinone, reference compound]	1100	4100	0.13	58.9
